Measurements reported in publication PMC5917010, “Structural basis for GPR40 allosteric agonism and incretin stimulation” (Nature Communications, 2018).
pEC50, pKi: −log10 of the molar value. Values joined by “and” are separate entries in the source; they are usually repeats but may differ in a detail not shown here. Equal entries are not always repeated. Where two headings read alike, the source gives them in different places.

What was measured:
[1] = target: T1, Human GPR120 (Homo sapiens, UniProt Q5NUL3); assay: Human GPR120 binding; details: Supplementary Table 1
T1 sequence (Q5NUL3 1-361): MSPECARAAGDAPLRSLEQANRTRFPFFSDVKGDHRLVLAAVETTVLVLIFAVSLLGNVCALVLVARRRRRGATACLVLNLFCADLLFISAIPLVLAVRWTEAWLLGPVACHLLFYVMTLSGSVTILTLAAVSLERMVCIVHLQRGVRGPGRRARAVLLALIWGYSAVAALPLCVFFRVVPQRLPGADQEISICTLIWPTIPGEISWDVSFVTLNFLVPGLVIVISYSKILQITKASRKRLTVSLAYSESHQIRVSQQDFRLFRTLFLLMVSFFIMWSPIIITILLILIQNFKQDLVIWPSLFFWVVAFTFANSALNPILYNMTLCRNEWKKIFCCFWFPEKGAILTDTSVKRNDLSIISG

[2] = target: T2, human PPARgama (Homo sapiens, UniProt P37231); assay: human PPARgamma binding; details: Supplementary Table 1
T2 sequence (P37231 1-505): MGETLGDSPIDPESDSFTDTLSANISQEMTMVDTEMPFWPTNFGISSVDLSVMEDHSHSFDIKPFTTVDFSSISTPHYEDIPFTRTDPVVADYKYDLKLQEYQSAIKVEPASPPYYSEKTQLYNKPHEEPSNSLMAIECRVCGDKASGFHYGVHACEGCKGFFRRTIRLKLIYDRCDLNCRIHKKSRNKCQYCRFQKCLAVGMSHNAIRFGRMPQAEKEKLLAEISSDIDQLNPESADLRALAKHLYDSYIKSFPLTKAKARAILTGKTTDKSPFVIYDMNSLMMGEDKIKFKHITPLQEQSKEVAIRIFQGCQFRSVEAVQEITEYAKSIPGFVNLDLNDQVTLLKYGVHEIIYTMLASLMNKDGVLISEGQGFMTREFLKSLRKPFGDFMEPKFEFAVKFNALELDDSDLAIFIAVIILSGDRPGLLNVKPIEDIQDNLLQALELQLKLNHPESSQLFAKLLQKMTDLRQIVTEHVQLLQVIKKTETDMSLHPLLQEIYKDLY

[3] = target: T3, human GPR40 (Homo sapiens, UniProt O14842); assay: Ca2+ mobilization assay (FLIPR), HEK293 cells stably overexpressing GPR40; assay type: cell-based; details: for Ca2+ mobilization (FLIPR) Top: relative to 500 µM linoleic acid; for agonist type in Ca2+ mobilization assay: relative to 500 µM of the natural ligand, linoleic acid
T3 construct: HEK293 cells stably overexpressing full length human GPR40; expressed in transfected cells
T3 sequence (O14842 whole entry): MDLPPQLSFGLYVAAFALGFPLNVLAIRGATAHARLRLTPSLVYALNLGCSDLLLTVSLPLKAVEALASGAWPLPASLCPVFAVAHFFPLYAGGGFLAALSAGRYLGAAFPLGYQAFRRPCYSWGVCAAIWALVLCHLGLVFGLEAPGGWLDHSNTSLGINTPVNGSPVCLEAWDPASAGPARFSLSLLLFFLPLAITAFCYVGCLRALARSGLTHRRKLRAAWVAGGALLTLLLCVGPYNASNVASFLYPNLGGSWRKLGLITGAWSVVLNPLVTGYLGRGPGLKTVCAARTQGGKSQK
Description: HEK293 cells stably overexpressing full length human GPR40 were plated (50K cells/well) into 96-well microtiter plates using Dulbecco’s Modified Eagle’s Medium (DMEM) supplemented with 10% certified fetal bovine serum (FBS), 20 mM HEPES, pH 7.4, 1 mM Sodium Pyruvate, 100 U/mL Penicillin, 100 µg/mL Streptomycin, and 800 µg/mL Geneticin. The cells were incubated overnight at 37 °C and 5% CO2. Calcium 4 dye (Molecular Devices) diluted in assay buffer was added (100 µL per well) to the cell plates, followed by a 1 h incubation in the dark at 25 °C. Test compounds were serially diluted three-fold in 100% DMSO and immediately diluted in assay buffer. […] Receptor activation was immediately measured as an increase in intracellular calcium using the FLIPR® over 3 min. To determine agonist responses, relative fluorescence units (RFUs) over 60 reads were calculated per well and used to calculate percent stimulation relative to 500 µM of the natural ligand, linoleic acid, response. EC50 values were calculated by plotting test compound concentration vs. percent stimulation using a 4-parameter logistic curve fitting equation.

[4] = system: wild type C57BL/6 mice; assay: Oral glucose tolerance test (OGTT) in wild type C57BL/6 mice; assay type: in vivo, mouse
Description: Eight to thirteen week old male C57BL/6 or KO mice were used. The day before the study, at 1600 hours, animals were transferred into clean cages and food was removed. The following morning (~0800 hours), mice were randomized by block randomization to treatment groups (N = 5–7 per group) so each group had similar mean and standard deviation of body weight and blood glucose. […] Animals were dosed with vehicle (0.5% MC/0.25% Tween-80) or the test article by oral gavage. Group allocations were not blinded from the experimenters who collected the data. After 60 min compound treatment animals were then given an oral gavage of glucose (2 g/kg). At 0, 15, 30, 60, and 120 min post oral glucose, two glucose readings via glucometers were obtained. The average of two glucose readings was reported at each time point. Data were expressed as mean±standard error (s.e.m.). Blood glucose values were analyzed using ANOVA with repeated measures. Cook’s distance was also calculated from linear regression. All animals were included in the analysis with their individual averaged Cook’s distance < 1. Dunnett’s comparison was performed at each time point by R program. Significance is denoted at p < 0.05.

[5] = target: T4, human PPARalpha (Homo sapiens, UniProt Q07869); assay: human PPARalpha binding; details: Supplementary Table 1
T4 sequence (Q07869 1-468): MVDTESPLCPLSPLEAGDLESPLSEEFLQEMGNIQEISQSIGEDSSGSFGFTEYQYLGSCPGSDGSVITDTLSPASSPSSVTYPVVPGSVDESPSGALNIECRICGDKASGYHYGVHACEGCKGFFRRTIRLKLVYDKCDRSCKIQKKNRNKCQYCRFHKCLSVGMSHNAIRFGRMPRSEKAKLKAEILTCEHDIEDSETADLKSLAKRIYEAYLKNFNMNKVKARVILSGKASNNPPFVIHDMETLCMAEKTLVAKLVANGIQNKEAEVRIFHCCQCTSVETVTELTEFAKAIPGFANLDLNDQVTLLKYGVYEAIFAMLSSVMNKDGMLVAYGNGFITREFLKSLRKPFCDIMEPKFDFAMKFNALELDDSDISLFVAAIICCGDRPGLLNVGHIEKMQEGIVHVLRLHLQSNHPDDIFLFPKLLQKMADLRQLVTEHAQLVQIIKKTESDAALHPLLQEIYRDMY

[6] = target: GPR40 S123A (Homo sapiens, UniProt O14842, S123A); assay: cAMP accumulation assay, S123A mutant
Sequence of GPR40 S123A (O14842 whole entry S123A): as the sequence (O14842 whole entry) above, with S123A counted along it
Description: HEK293 cells transiently transfected with Promega’s cAMP response element (CRE/luc2P) and a GPR40 construct were plated (40K cells/well) into 96-well microtiter plates using Dulbecco’s Modified Eagle’s Medium (DMEM) supplemented with 10% FBS, 20 mM HEPES, pH 7.4, 100 U/mL Penicillin, 100 µg/mL Streptomycin, and 800 µg/mL Geneticin. Test compounds were serially diluted three-fold in 100% DMSO and immediately diluted in media. […] EC50 values were calculated using a four-parameter logistic curve fitting equation.

[7] = Dog hepatocyte clearance; assay type: in vitro ADME; details: hepatocytes
[8] = target: T3, human GPR40; assay: Human GPR40 Calcium (Supplementary Table 1); assay type: cell-based

| SMILES | pKi [1] | pKi [2] | Ca2+ mobilization (FLIPR) Top [3] [%] | agonist type in Ca2+ mobilization assay [3] | glucose in OGTT ([4]; 30 and 60 mg kg-1) | pKi [5] | pEC50 [6] | recovery ([7]; no ABT, read-out: Dog Hepatocyte Clearance no ABT % Recovery) [%] | hepatocyte CLint ([7]; no ABT, read-out: Dog Hepatocyte Clearance no ABT Intrinsic Clearance) [µL/min/1e6 cells] | recovery ([7]; with ABT (concentration not stated), read-out: Dog Hepatocyte Clearance ABT % Recovery) [%] | hepatocyte CLint ([7]; with ABT, read-out: Dog Hepatocyte Clearance ABT Intrinsic Clearance) [µL/min/1e6 cells] | pEC50 ([3]; GPR40-Gαq signaling, stably transfected cells, no TAK-875) | cooperativity composite factor (Log αβ) ([3]; compound 1 with TAK-875, operational model, slope constrained to 1) | efficacy modulation cooperativity factor (β) ([3]; cooperativity between TAK-875 and compound 1) | average α-factor ([3]; cooperativity between TAK-875 and compound 1, averages from Figs. 1a and 8a) | Emax [8] [%] | glucose excursion in OGTT ([4]; various oral doses) |
| --- | --- | --- | --- | --- | --- | --- | --- | --- | --- | --- | --- | --- | --- | --- | --- | --- | --- |
| Cc1cc(OCCCS(C)(=O)=O)cc(C)c1-c1cccc(COc2ccc3c(c2)OC[C@H]3CC(=O)O)c1 [TAK-875] | < 4.00 | < 5.00 | 81.67 | partial agonist | Decreases in glucose | < 5.00 | – | – | – | – | – | – | – | – | – | – | – |
| COc1ccc(C(=O)N(CC(C)(C)C)c2cccc(C)n2)c(N2CCC(c3cc4ccc([C@@H](CC(=O)O)C5CC5)cc4o3)CC2)c1 [compound 1] | < 4.00 | < 5.00 | 136.3 | full agonist | – | < 5.00 | < 4.52 | 103 | 31.4 | 92.8 | 19.3 | 7.14 and ~7.14 | 1.46 | 14 | 2.1 | 110 | Dose dependent decreases in glucose excursion |
